For 26 compounds, melting point and IC50 results are on record in patent US8735414B2 (priority 2009, dated 2014).

In data set [1] the test system is bicistronic HCV replicon (replicon RNA, GenBank Accession No. AJ242654). The experiment in a line: HCV Replicon Assay. The data set is classed as cell-based. The following applies: Hepatitis C virus, 72 h, read-out: Replicon IC50. A general note: In antiviral work, replicon cells carry a viral genome segment that copies itself.

Each structure is given as a SMILES string. Bounds are passed on as bounds.

One may read the melting point as the temperature, or range, at which the solid turns liquid. One may read the IC50 as the midpoint of a concentration-inhibition curve. As to `N#Cc1c(-c2ccc(S(=O)(=O)NC(CF)CF)cn2)n(C2CCC2)c2cc(F)ccc12` [compound 56, 6-(3-cyano-1-cyclobutyl-6-fluoro-1H-indol-2-yl)-N-(1,3-difluoropropan-2-yl)pyridine-3-sulfonamide], the melting point lay within 206 to 208 °C. Also, the 50% inhibitory concentration (IC50) in data set [1] is less than 500 nM.
For `Cc1c(F)cc2c(c1F)c(C#N)c(-c1ccc(S(=O)(=O)NC(CF)CF)cn1)n2C1CCC1` [compound 556, 6-(3-cyano-1-cyclobutyl-4,6-difluoro-5-methyl-1H-indol-2-yl)-N-(1,3-difluoropropan-2-yl)pyridine-3-sulfonamide], in that order: 207 to 212 °C and less than 500 nM.
For `CCc1cc2c(cc1F)c(C(N)=O)c(-c1ccc(S(=O)(=O)N[C@@H](C)C(F)(F)F)cn1)n2-c1cccc(F)n1` [compound 995, 6-ethyl-5-fluoro-1-(6-fluoropyridin-2-yl)-2-(5-{[(2S)-1,1,1-trifluoropropan-2-yl]sulfamoyl}pyridin-2-yl)-1H-indole-3-carboxamide], in that order: 230 to 233 °C and less than 500 nM.
In the same order, the values of `CCc1cc2c(cc1F)c(C#N)c(-c1ccc(S(=O)(=O)N(c3ncccn3)C3(C)CC3)cn1)n2-c1ncccn1` [compound 861, 6-[3-cyano-6-ethyl-5-fluoro-1-(pyrimidin-2-yl)-1H-indol-2-yl]-N-(1-methylcyclopropyl)-N-(pyrimidin-2-yl)pyridine-3-sulfonamide] are 193 to 200 °C and 2000 to 5000 nM.
As to `C[C@H](NS(=O)(=O)c1ccc(-c2c(C#N)c3cc(CC(F)F)ccc3n2C2CCC2)nc1)C(F)(F)F` [compound 702, 6-[3-cyano-1-cyclobutyl-5-(2,2-difluoroethyl)-1H-indol-2-yl]-N-[(2S)-1,1,1-trifluoropropan-2-yl]pyridine-3-sulfonamide], the melting point was in the range of 143 to 147 °C. In data set [1], the IC50 is less than 500 nM.
`C[C@H](NS(=O)(=O)c1cnc(-c2c(C#N)c3ccc(F)cc3n2C2CCCC2)nc1)C(F)(F)F` [compound 495, 2-(3-cyano-1-cyclopentyl-6-fluoro-1H-indol-2-yl)-N-[(2S)-1,1,1-trifluoropropan-2-yl]pyrimidine-5-sulfonamide]: the melting point is 217 to 219 °C. The IC50 in data set [1] is 2000 to 5000 nM.
As for `CCc1cc2c(cc1F)c(C(N)=O)c(-c1ccc(S(=O)(=O)N[C@@H](C)C(F)(F)F)cn1)n2-c1ccc(F)cc1` [compound 1019, 6-ethyl-5-fluoro-1-(4-fluorophenyl)-2-(5-{[(2S)-1,1,1-trifluoropropan-2-yl]sulfamoyl}pyridin-2-yl)-1H-indole-3-carboxamide], the melting point fell in the range of 210 to 217 °C. Besides, the IC50 in data set [1] was less than 500 nM.
For `C[C@H](NS(=O)(=O)c1cnc(-c2c(C#N)c3ccc(CC(F)F)cc3n2C2CCCC2)nc1)C(F)(F)F` [compound 600, 2-[3-cyano-1-cyclopentyl-6-(2,2-difluoroethyl)-1H-indol-2-yl]-N-[(2S)-1,1,1-trifluoropropan-2-yl]pyrimidine-5-sulfonamide], in that order: 240 to 246 °C and less than 500 nM.
For `Cc1ccc2c(C#N)c(-c3ccc(S(=O)(=O)NC(CF)CF)cn3)n(C(C)C)c2c1` [compound 80, 6-[3-cyano-6-methyl-1-(propan-2-yl)-1H-indol-2-yl]-N-(1,3-difluoropropan-2-yl)pyridine-3-sulfonamide], in that order: 188 to 195 °C and less than 500 nM.
In the same order, the values of `N#Cc1c(-c2ccc(S(=O)(=O)NC(CF)CF)cn2)n(-c2ccccc2)c2ccc(Cl)cc12` [compound 112, 6-(5-chloro-3-cyano-1-phenyl-1H-indol-2-yl)-N-(1,3-difluoropropan-2-yl)pyridine-3-sulfonamide] are 192 to 196 °C and less than 500 nM.
`NC(=O)c1c(-c2ccc(S(=O)(=O)Nc3ccccc3)cn2)n(C2CCC2)c2cc(OC(F)F)c(F)cc12` [compound 798, 1-cyclobutyl-6-(difluoromethoxy)-5-fluoro-2-[5-(phenylsulfamoyl)pyridin-2-yl]-1H-indole-3-carboxamide] displayed a melting point of 204 to 206 °C. Besides, in data set [1], the IC50 was 500 to 2000 nM.
For `Cc1ccc2c(C#N)c(-c3ccc(S(=O)(=O)N[C@@H](C)C(F)(F)F)cn3)n(-c3ccccn3)c2c1` [compound 476, 6-[3-cyano-6-methyl-1-(pyridin-2-yl)-1H-indol-2-yl]-N-[(2S)-1,1,1-trifluoropropan-2-yl]pyridine-3-sulfonamide], in that order: 199 to 203 °C and less than 500 nM.
In the same order, the values of `CC(C)(C)NS(=O)(=O)c1ccc(-c2c(C#N)c3cc(F)c(O)cc3n2C2CCC2)nc1` [compound 719, N-tert-butyl-6-(3-cyano-1-cyclobutyl-5-fluoro-6-hydroxy-1H-indol-2-yl)pyridine-3-sulfonamide] are 242 to 245 °C and 500 to 2000 nM.
For `Cc1c(F)cc2c(C#N)c(-c3ccc(S(=O)(=O)N[C@@H](C)C(F)(F)F)cn3)n(C3CCCC3)c2c1F` [compound 508, 6-(3-cyano-1-cyclopentyl-5,7-difluoro-6-methyl-1H-indol-2-yl)-N-[(2S)-1,1,1-trifluoropropan-2-yl]pyridine-3-sulfonamide], the melting point lay in the range of 215 to 219 °C. Also, the IC50 in data set [1] was less than 500 nM.
In the same order, the values of `CCc1cc2c(cc1F)c(C#N)c(-c1ccc(S(=O)(=O)N[C@@H](C)C(F)(F)F)cn1)n2-c1cccc(F)n1` [compound 930, 6-[3-cyano-6-ethyl-5-fluoro-1-(6-fluoropyridin-2-yl)-1H-indol-2-yl]-N-[(2S)-1,1,1-trifluoropropan-2-yl]pyridine-3-sulfonamide] are 205 to 211 °C and less than 500 nM.
Turning to `Cc1cc2c(cc1F)c(C#N)c(-c1ccc(S(=O)(=O)N[C@@H](C)C(F)(F)F)cn1)n2-c1cccnc1` [compound 893, 6-[3-cyano-5-fluoro-6-methyl-1-(pyridin-3-yl)-1H-indol-2-yl]-N-[(2S)-1,1,1-trifluoropropan-2-yl]pyridine-3-sulfonamide], the melting point is 217 to 221 °C. In addition, the half-inhibitory concentration (IC50) in data set [1] was less than 500 nM.
In the case of `Cc1cc2c(cc1F)c(C#N)c(-c1ccc(S(=O)(=O)NC(CF)CF)cn1)n2C1CCCC1` [compound 407, 6-(3-cyano-1-cyclopentyl-5-fluoro-6-methyl-1H-indol-2-yl)-N-(1,3-difluoropropan-2-yl)pyridine-3-sulfonamide], the melting point was 211 to 213 °C. For the same compound, the IC50 in data set [1] is less than 500 nM.
For `C[C@H](NS(=O)(=O)c1cnc(-c2c(C(N)=O)c3ccc(OC(F)F)cc3n2C2CCCCC2)nc1)C(F)(F)F` [compound 746, 1-cyclohexyl-6-(difluoromethoxy)-2-(5-{[(2S)-1,1,1-trifluoropropan-2-yl]sulfamoyl}pyrimidin-2-yl)-1H-indole-3-carboxamide], in that order: 217 to 219 °C and less than 500 nM.
Consider `Cc1cc2c(cc1F)c(C#N)c(-c1ccc(S(=O)(=O)NC(C)(C)C)cn1)n2C1CCCC1` [compound 643, N-tert-butyl-6-(3-cyano-1-cyclopentyl-5-fluoro-6-methyl-1H-indol-2-yl)pyridine-3-sulfonamide], for which the melting point is 208 to 209 °C. Besides, the IC50 in data set [1] was less than 500 nM.
On to `C[C@H](NS(=O)(=O)c1cnc(-c2c(C#N)c3ccc(C4CC4)cc3n2C2CCC2)nc1)C1CC1` [compound 131, 2-(3-cyano-1-cyclobutyl-6-cyclopropyl-1H-indol-2-yl)-N-[(1S)-1-cyclopropylethyl]pyrimidine-5-sulfonamide], for which the melting point fell in the range of 165 to 167 °C. Further, the IC50 in data set [1] is less than 500 nM.
For `CC(C)Oc1ccc2c(C#N)c(-c3ccc(NS(=O)(=O)C(C)C)cn3)n(CC3CC3)c2c1` [compound 281, N-{6-[3-cyano-1-(cyclopropylmethyl)-6-(propan-2-yloxy)-1H-indol-2-yl]pyridin-3-yl}propane-2-sulfonamide], in that order: 168 to 172 °C and 500 to 2000 nM.
For `C[C@H](NS(=O)(=O)c1ccc(-c2c(C#N)c3cc(Cl)ccc3n2C2CCCC2)nc1)C(F)(F)F` [compound 365, 6-(5-chloro-3-cyano-1-cyclopentyl-1H-indol-2-yl)-N-[(2S)-1,1,1-trifluoropropan-2-yl]pyridine-3-sulfonamide], in that order: 207 to 214 °C and less than 500 nM.
In the same order, the values of `Cc1c(F)cc2c(C#N)c(-c3ccc(S(=O)(=O)NC(C)(C)C(F)(F)F)cn3)n(C3CCC3)c2c1F` [compound 577, 6-(3-cyano-1-cyclobutyl-5,7-difluoro-6-methyl-1H-indol-2-yl)-N-(1,1,1-trifluoro-2-methylpropan-2-yl)pyridine-3-sulfonamide] are 180 to 187 °C and less than 500 nM.
On to `NC(=O)c1c(-c2ccc(S(=O)(=O)NC(CF)CF)cn2)n(C2CCC2)c2cc(OC(F)F)ccc12` [compound 581, 1-cyclobutyl-6-(difluoromethoxy)-2-{5-[(1,3-difluoropropan-2-yl)sulfamoyl]pyridin-2-yl}-1H-indole-3-carboxamide], for which the melting point lay in the range of 211 to 213 °C. Moreover, the 50% inhibitory concentration (IC50) in data set [1] was less than 500 nM.
For `Cc1cc2c(cc1F)c(C#N)c(-c1ccc(S(=O)(=O)N[C@@H](C)C(F)(F)F)cn1)n2-c1cccnn1` [compound 892, 6-[3-cyano-5-fluoro-6-methyl-1-(pyridazin-3-yl)-1H-indol-2-yl]-N-[(2S)-1,1,1-trifluoropropan-2-yl]pyridine-3-sulfonamide], in that order: 245 to 250 °C and less than 500 nM.
For `CCn1c(-c2ccc(N(CCO)S(=O)(=O)C3CC3)nc2)c(C#N)c2ccc(OC(C)C)cc21` [compound 293, N-{5-[3-cyano-1-ethyl-6-(propan-2-yloxy)-1H-indol-2-yl]pyridin-2-yl}-N-(2-hydroxyethyl)cyclopropanesulfonamide], in that order: 212 to 214 °C and 500 to 2000 nM.
